PubChem BioAssay AID588327 (The Scripps Research Institute Molecular Screening Center, 2011)
The source made the active and inactive calls. How the calls were made is not given here.

Target: Sphingosine 1-phosphate receptor 3 (Homo sapiens) (UniProt Q99500)
Test: binders competing with S1P at S1P3 – cell-based, [33P]S1P, radiometric, dose response, mechanism study for S1P3 agonist project, late-stage follow-up (AID 588327)
Conditions: S1P3 membranes, [33P]S1P competition binding, CPM

Sequence of Sphingosine 1-phosphate receptor 3 (Homo sapiens) (Q99500 whole entry, looked up): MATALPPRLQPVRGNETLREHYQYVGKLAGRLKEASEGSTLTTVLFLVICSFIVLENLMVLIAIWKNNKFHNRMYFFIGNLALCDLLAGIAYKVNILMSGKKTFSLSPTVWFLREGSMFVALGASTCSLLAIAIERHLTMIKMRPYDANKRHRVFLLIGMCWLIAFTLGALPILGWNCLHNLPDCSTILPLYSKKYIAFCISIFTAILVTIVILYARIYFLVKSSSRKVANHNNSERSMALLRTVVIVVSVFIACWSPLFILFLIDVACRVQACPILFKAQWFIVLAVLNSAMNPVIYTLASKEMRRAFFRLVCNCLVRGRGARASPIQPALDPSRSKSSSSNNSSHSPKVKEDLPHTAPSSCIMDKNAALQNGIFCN

IC50: > 10 µM (inactive)
Structure (SMILES): O=C(c1cc(C2CC2)on1)N(C1CCCCC1)C1CCCCC1
